One assay deals with Jurkat (FADD−/−) cells. The assay is described as follows: Inhibition of TNF-induced programmed Jurkat (FADD−/−) cell necrosis (Cell Titer-Glo). It is filed as cell-based, human. The settings on record: Homo sapiens, Jurkat, 20 h, TNF 10 ng/mL, intracellular ATP level, read-out: Cellular IC50 (M) Jurkat (FADD−/−). The protocol: Two replicate wells were set for each concentration of each compound.
Jurkat (FADD^−/−) cells (human-derived peripheral blood leukemia T cell line, with FADD gene knocked out) were cultured in vitro. After growing to logarithmic growth phase, the cells were harvested, and centrifuged at 1000 rpm for 5 min. The supernatant was discarded, and the cells were resuspended in fresh medium and adjusted to a cell density of 5×10^5/mL. The cell suspension was added to the culture plate containing the drug (40 μL per well). In the treatment groups, 10 μL of TNF (tumor necrosis factor, final concentration 10 ng/mL) diluted with the cell culture medium was added to each well, and incubated for 20 h in a cell incubator (37° C., 5% CO2). Subsequently, 50 μL of Cell Titer-Glo solution was added to each well and incubated at room temperature for 10 min. Then, the luminescence was detected on BioTek plate reader to measure the intracellular ATP level. The effect of the test compounds in inhibiting TNF-induced cell necrosis was calculated from the full-activity well and background well (with the untreated DMSO control well as 100% cell viability), and the half inhibitory concentration (IC50) of the compound was calculated by Graphpad Prism statistical software.
In general terms: Cellular ATP, detected with luciferase, serves as a proxy for viable cell number.
As to `COc1ncnc2cc3c(cc12)N(C)C(=O)[C@@H](NC(=O)c1n[nH]c(Cc2c(F)cccc2F)n1)CO3` [RIP1-156], the IC50 worked out at 2.8e-08 M.

Consider `COc1ncnc2cc3c(cc12)N(C)C(=O)[C@@H](NC(=O)c1n[nH]c(Cc2c(F)cc(F)cc2F)n1)CO3` [RIP1-157], for which the IC50 amounted to 2.49e-07 M.

Consider `COc1ncnc2cc3c(cc12)N(C)C(=O)[C@@H](NC(=O)c1n[nH]c(Cc2ccc(F)cc2)n1)CO3` [RIP1-158], for which the IC50 is 8e-09 M. On the same count and under the same terms, then `COc1ncnc2cc3c(cc12)N(C)C(=O)[C@@H](NC(=O)c1n[nH]c(Cc2cccc(F)c2)n1)CO3` [RIP1-159], with 8.7e-09 M.

In the case of `COc1ncnc2cc3c(cc12)N(C)C(=O)[C@@H](NC(=O)c1n[nH]c(Cc2ccccc2F)n1)CO3` [RIP1-160], the IC50 is 2.2e-09 M. Consider `CN1C(=O)[C@@H](NC(=O)c2n[nH]c(Cc3c(F)cccc3F)n2)COc2ccc3cnccc3c21` [RIP1-161], for which the IC50 is 8.6e-09 M. The same measure, in the same setting: then `CN1C(=O)[C@@H](NC(=O)c2n[nH]c(Cc3c(F)cc(F)cc3F)n2)COc2ccc3cnccc3c21` [RIP1-162], with 5.4e-08 M; and `CN1C(=O)[C@@H](NC(=O)c2n[nH]c(Cc3ccccc3F)n2)COc2ccc3cnccc3c21` [RIP1-163], with 1.3e-09 M. Consider `CN1C(=O)[C@@H](NC(=O)c2n[nH]c(Cc3ccc(F)cc3)n2)COc2ccc3cnccc3c21` [RIP1-164], for which the IC50 was 3.3e-09 M. On the same count and under the same terms, with `CN1C(=O)[C@@H](NC(=O)c2n[nH]c(Cc3cccc(F)c3)n2)COc2ccc3cnccc3c21` [RIP1-165] the figure was 2.5e-09 M; with `CN1C(=O)[C@@H](NC(=O)c2n[nH]c(Cc3c(F)cccc3F)n2)COc2cc3[nH]nnc3cc21` [RIP1-166], 2.98e-07 M. Regarding `CN1C(=O)[C@@H](NC(=O)c2n[nH]c(Cc3ccc(F)cc3)n2)COc2cc3[nH]nnc3cc21` [RIP1-167], the IC50 came to 1.6e-06 M.

`CN1C(=O)[C@@H](NC(=O)c2n[nH]c(Cc3c(F)cccc3F)n2)COc2ccc3ncccc3c21` [RIP1-168]: the IC50 came out at 1.1e-08 M.

With `CN1C(=O)[C@@H](NC(=O)c2n[nH]c(Cc3c(F)cc(F)cc3F)n2)COc2ccc3ncccc3c21` [RIP1-169], the IC50 was determined as 1.13e-07 M. The same measure, in the same setting: then `CN1C(=O)[C@@H](NC(=O)c2n[nH]c(Cc3ccccc3F)n2)COc2ccc3ncccc3c21` [RIP1-170], with 1.74e-09 M; and `CN1C(=O)[C@@H](NC(=O)c2n[nH]c(Cc3ccc(F)cc3)n2)COc2ccc3ncccc3c21` [RIP1-171], with 1.4e-08 M; and `CN1C(=O)[C@@H](NC(=O)c2n[nH]c(Cc3cccc(F)c3)n2)COc2ccc3ncccc3c21` [RIP1-172], with 5e-09 M. Still for that read-out and setting: then `CN1C(=O)[C@@H](NC(=O)c2n[nH]c(Cc3c(F)cc(F)cc3F)n2)COc2cc3occc3cc21` [RIP1-173], with 7e-08 M; and `CN1C(=O)[C@@H](NC(=O)c2n[nH]c(Cc3ccc(F)cc3)n2)COc2cc3occc3cc21` [RIP1-174], with 1.3e-08 M. For `COc1ncnc2cc3c(cc12)N(C)C(=O)[C@@H](NC(=O)c1cc(Oc2ccccc2)ccn1)CO3` [RIP1-175], the IC50 was 1.46e-09 M. Still for that read-out and setting: with `COc1ncnc2cc3c(cc12)N(C)C(=O)[C@@H](NC(=O)c1n[nH]c(Cc2cc(F)cc(F)c2)n1)CO3` [RIP1-176] the figure was 6.9e-09 M; with `CN1C(=O)[C@@H](NC(=O)c2cc(Oc3ccccc3)ccn2)COc2cc3nccnc3cc21` [RIP1-177], 2.03e-09 M. With `CN1C(=O)[C@@H](NC(=O)c2cc(Oc3ccccc3)ccn2)COc2ccc3cnccc3c21` [RIP1-178], the IC50 came to 3.23e-10 M. On the same count and under the same terms, then `CN1C(=O)[C@@H](NC(=O)c2cc(Oc3ccccc3)ccn2)COc2ccc3ncccc3c21` [RIP1-179], with 6.7e-10 M; and `CN1C(=O)[C@@H](NC(=O)c2cc(Oc3ccccc3)ccn2)COc2cc3occc3cc21` [RIP1-180], with 2.66e-10 M. In the case of `CN1C(=O)[C@@H](NC(=O)c2cc(Oc3ccccc3)ccn2)COc2cc3[nH]nnc3cc21` [RIP1-181], the IC50 came out at 5.92e-10 M. Turning to `CN1C(=O)[C@@H](NC(=O)c2n[nH]c(Cc3ccccc3)n2)COc2cc3ncoc3cc21` [RIP1-182], the IC50 was found to be 8.16e-10 M. On the same count and under the same terms, with `CN1C(=O)[C@@H](NC(=O)c2n[nH]c(Cc3c(F)cccc3F)n2)COc2cc3ncoc3cc21` [RIP1-183] the figure was 6.15e-09 M. On the same count and under the same terms, with `CN1C(=O)[C@@H](NC(=O)c2n[nH]c(Cc3c(F)cc(F)cc3F)n2)COc2cc3ncoc3cc21` [RIP1-184] the figure was 3.76e-08 M; with `CN1C(=O)[C@@H](NC(=O)c2n[nH]c(Cc3ccc(F)cc3)n2)COc2cc3ncoc3cc21` [RIP1-185], 2.72e-09 M.

As to `CN1C(=O)[C@@H](NC(=O)c2cc(Oc3ccccc3)ccn2)COc2cc3ncoc3cc21` [RIP1-186], the IC50 turned out to be 7.52e-10 M. Turning to `CN1C(=O)[C@@H](NC(=O)c2n[nH]c(Cc3ccccc3)n2)COc2cc3ncnc(O)c3cc21` [RIP1-187], the IC50 turned out to be 2.59e-07 M. On the same count and under the same terms, with `CN1C(=O)[C@@H](NC(=O)c2cc(Oc3ccccc3)ccn2)COc2cc3ncnc(O)c3cc21` [RIP1-188] the figure was 1.93e-07 M; with `CN1C(=O)[C@@H](NC(=O)c2cc(Oc3ccccc3)ccn2)COc2cc3[nH]ccc3cc21` [RIP1-189], 1.93e-10 M; with `CN1C(=O)[C@@H](NC(=O)c2cc(Oc3ccccc3)ccn2)COc2cc3[nH]ncc3cc21` [RIP1-190], 1.44e-10 M. On the same count and under the same terms, then `CN1C(=O)[C@@H](NC(=O)c2cncc(Oc3ccccc3)c2)COc2ccc3ncccc3c21` [RIP1-193], with 2.95e-07 M; and `CN1C(=O)[C@@H](NC(=O)c2cccc(Oc3ccccc3)n2)COc2ccc3ncccc3c21` [RIP1-194], with 7.28e-06 M. For `CN1C(=O)[C@@H](NC(=O)c2ccnc(Oc3ccccc3)c2)COc2ccc3ncccc3c21` [RIP1-195], the IC50 worked out at 5.66e-06 M. As for `CN1C(=O)[C@@H](NC(=O)c2ccc(Oc3ccccc3)cn2)COc2ccc3ncccc3c21` [RIP1-196], the IC50 is > 2e-05 M. As to `CN1C(=O)[C@@H](NC(=O)c2cc(Oc3ccc(F)cc3)ccn2)COc2ccc3ncccc3c21` [RIP1-197], the IC50 is 2.92e-08 M. Still for that read-out and setting: with `CN1C(=O)[C@@H](NC(=O)c2cc(Oc3c(F)cccc3F)ccn2)COc2ccc3ncccc3c21` [RIP1-198] the figure was 4.57e-09 M; with `CN1C(=O)[C@@H](NC(=O)c2ccnc(Oc3ccccc3)n2)COc2ccc3ncccc3c21` [RIP1-199], 4.76e-05 M; with `CN1C(=O)[C@@H](NC(=O)c2cc(Nc3ccccc3)ccn2)COc2ccc3ncccc3c21` [RIP1-200], 8.18e-08 M. The same measure, in the same setting: then `CN1C(=O)[C@@H](NC(=O)c2ccc(Nc3ccccc3)cn2)COc2ccc3ncccc3c21` [RIP1-201], with > 2e-05 M. Turning to `CN1C(=O)[C@@H](NC(=O)c2ccnc(Nc3ccccc3)n2)COc2ccc3ncccc3c21` [RIP1-202], the IC50 was > 2e-05 M. Take `CN1C(=O)[C@@H](NC(=O)c2cc(Oc3ccccc3F)ccn2)COc2ccc3ncccc3c21` [RIP1-203]: the IC50 was 2.33e-09 M. For `CN1C(=O)[C@@H](NC(=O)c2cc(Oc3cccc(F)c3)ccn2)COc2ccc3ncccc3c21` [RIP1-204], the IC50 amounted to 3.04e-09 M. On to `CN1C(=O)[C@@H](NC(=O)c2cc(Oc3cc(F)cc(F)c3)ccn2)COc2ccc3ncccc3c21` [RIP1-205], for which the IC50 is 7.11e-09 M. On to `CN1C(=O)[C@@H](NC(=O)c2n[nH]c(Cc3ccccc3F)n2)COc2cc3ncoc3cc21` [RIP1-206], for which the IC50 amounted to 8.18e-10 M.

For `CN1C(=O)[C@@H](NC(=O)c2n[nH]c(Cc3ccc(F)cc3)n2)COc2cc3nccnc3cc21` [RIP1-207], the IC50 was 4.88e-09 M.

With `CN1C(=O)[C@@H](NC(=O)c2n[nH]c(Cc3ccccc3F)n2)COc2cc3nccnc3cc21` [RIP1-208], the IC50 came to 1.49e-09 M. Same read-out and setting: with `CN1C(=O)[C@@H](NC(=O)c2n[nH]c(Cc3cccc(F)c3)n2)COc2cc3nccnc3cc21` [RIP1-209] the figure was 1.92e-09 M; with `CN1C(=O)[C@@H](NC(=O)c2cc(Oc3cccnc3)ccn2)COc2ccc3ncccc3c21` [RIP1-210], 7.8e-09 M; with `CN1C(=O)[C@@H](NC(=O)c2nnc(Oc3ccccc3)[nH]2)COc2cc3ncoc3cc21` [RIP1-211], 2.72e-07 M.

As to `CN1C(=O)[C@@H](NC(=O)c2cc(Oc3cccnc3)ccn2)COc2cc3ncoc3cc21` [RIP1-212], the IC50 was 1.81e-08 M. Consider `CN1C(=O)[C@@H](NC(=O)c2nccc(Oc3ccccc3)n2)COc2cc3ncoc3cc21` [RIP1-213], for which the IC50 amounted to 7.68e-08 M. Consider `CN1C(=O)[C@@H](NC(=O)c2cc(Oc3cccnc3)ccn2)COc2cc3nccnc3cc21` [RIP1-214], for which the IC50 is 2.41e-08 M.

In the case of `CN1C(=O)[C@@H](NC(=O)c2nccc(Oc3ccccc3)n2)COc2cc3nccnc3cc21` [RIP1-215], the IC50 amounted to 3.45e-07 M.

For `CN1C(=O)[C@@H](NC(=O)c2nnc(Cc3cccc(F)c3)[nH]2)COc2cc3ocnc3cc21` [RIP1-217], the IC50 worked out at 1.38e-09 M. As to `CN1C(=O)[C@@H](NC(=O)c2nnc(Cc3ccccc3)[nH]2)COc2cc3ocnc3cc21` [RIP1-218], the IC50 was determined as 1.24e-09 M. For the compound `CN1C(=O)[C@@H](NC(=O)c2nnc(Cc3ccccc3F)[nH]2)COc2cc3ocnc3cc21` [RIP1-219], the IC50 amounted to 6.75e-10 M. For the compound `CN1C(=O)[C@@H](NC(=O)c2nc(Cc3ccccc3)n(C)n2)COc2cc3ncoc3cc21` [RIP1-220], the IC50 is > 2e-05 M. On to `CN1C(=O)[C@@H](NC(=O)c2cc(Cc3ccccc3)ccn2)COc2cc3ncoc3cc21` [RIP1-221], for which the IC50 worked out at 7.31e-09 M.

The assay is the same for the next values; noted with them: TNF 10 ng/mL, 20 h, intracellular ATP level; read-out: Cellular IC50 (M) Jurkat (FADD−/−).
On to `CN1C(=O)[C@@H](NC(=O)c2n[nH]c(Cc3ccccc3F)n2)COc2ccc3ncccc3c21` [RIP1-170], for which the IC50 came out at 3e-09 M.
